Assay results from patent US6413946B1, “Composition for treatment of diabetes and treatment of diabetes” (Meiji Seika Kaisha, Ltd., priority 1997, dated 2002).
“Also recorded” adds a separate entry of the source.

Tests used:
rats = test: Toxicity in rats at oral administration; type: in vivo
STZ diabetic rats [1] = test: Biochemical tests of blood of STZ diabetic rats (Example 2); type: in vivo, Wistar rats; settings: 320 mg/kg oral twice a day for 5 consecutive days
Description: To male Wistar 7-week-old rats (7 rats per group), which were intravenously administered with a single dose of 60 mg/kg of STZ and which were confirmed to have been made diabetic after the lapse of 1 week from the STZ administration, fosfomycin disodium salt or fosfomycin calcium salt (FOM-Ca) was orally administered at a dose of 320 mg/kg, twice a day for 5 consecutive days. Then, sample of the blood of each test rat was taken and subjected to the biochemical tests.

STZ diabetic rats [2] = test: Biochemical tests of serum (blood) sample of STZ diabetic rats (Example 1); type: in vivo, Wistar rats; settings: oral twice a day for 5 consecutive days, fosfomycin disodium salt 160 mg/kg, vanadyl sulfate 50 mg/kg, alone or combined
Description: In this Example, as animals to be tested, the STZ diabetic rats were prepared from normal Wistar rats having an average body weight of 250 g (male, 6 weeks of age). For this purpose, the normal Wistar rats were made diabetic by a single administration of a dose of 60 mg/kg of STZ intravenously. […]
(§1) The STZ diabetic rats as prepared and used in this Example are such those rats (7 weeks of age, 6 rats per group) which had received an intravenous administration of a single dose of 60 mg/kg of STZ and which were confirmed to have been made diabetic with their showing such symptom that their serum glucose level was not less than 400 (mg/dl), when measured by sampling their blood at 1 week lapse from the STZ administration.
One week after the intravenous administration of single dose 60 mg/kg of STZ, to the male 7-week-old Wistar rats (6 rats per group), which have been confirmed to have the symptoms of diabetes, were orally administered either one or both of vanadyl sulfate VOSO4 at a single dose of 50 mg/kg and fosfomycin disodium salt (abbreviated as FOM-Na) at a single dose of 160 mg/kg, twice a day for 5 consecutive days, by administration of the test compound(s) in the form of the aqueous solutions. The body weight, amounts (volumes) of feed taken, water taken and urine volume output of the rats under test were measured with lapse of time. […]

STZ diabetic rats [3] = test: General observation of body conditions of STZ diabetic rats (Example 1); type: in vivo, Wistar rats; settings: oral twice a day for 5 consecutive days, VOSO4 50 mg/kg, FOM-Na 160 mg/kg
Description: (§2) In this Example, as animals to be tested, the STZ diabetic rats were prepared from normal Wistar rats having an average body weight of 250 g (male, 6 weeks of age). For this purpose, the normal Wistar rats were made diabetic by a single administration of a dose of 60 mg/kg of STZ intravenously. The normal Wistar rats (male) which are to be subjected to the STZ administration, when they were given 20 g/day of feed and 36 g/day of water, had have such body conditions that average values each of their urine volume output, serum glucose level, serum urea nitrogen level, serum creatinine level, serum total protein level and serum albumin level of the rats are amounting to 18 ml, 152 mg/dl, 18.0 mg/dl, 0.5 mg/dl, 5.63 g/dl and 4.2 g/dl, respectively.
as §1
(§3) One week after the intravenous administration of single dose 60 mg/kg of STZ, to the male 7-week-old Wistar rats (6 rats per group), which have been confirmed to have the symptoms of diabetes, were orally administered either one or both of vanadyl sulfate VOSO4 at a single dose of 50 mg/kg and fosfomycin disodium salt (abbreviated as FOM-Na) at a single dose of 160 mg/kg, twice a day for 5 consecutive days, by administration of the test compound(s) in the form of the aqueous solutions. The body weight, amounts (volumes) of feed taken, water taken and urine volume output of the rats under test were measured with lapse of time. Further, sampling of blood from the rats was effected at a time of 24 hours after the final administration of the compound(s) tested. Samplings of the urine from the rats were effected over 12 hours after the final administration of the compound(s) tested, and the blood sample and the urine samples as collected were subjected to the following biochemical tests.
(§4) In the biological tests of the blood sample above-mentioned, there were measured the serum glucose level, serum urea nitrogen level, serum creatinine level, serum total protein level and serum albumin level. In the biochemical tests of the urine sample, there were measured the collected amounts of the glucose, total protein and creatinine present in the urine. […] These rats for the comparative purpose were tested similarly to the above tests.

STZ diabetic rats [4] = test: Biochemical test of urine sample of STZ diabetic rats (Example 1); type: in vivo, Wistar rats; settings: oral twice a day for 5 consecutive days, VOSO4 50 mg/kg, FOM-Na 160 mg/kg
Description: as §2, §1, §3, §4

Na,K-ATPase = settings: cited from earlier work
STZ diabatic rats = settings: aqueous saline solution as drinking water; 6th week after the administration; cited from earlier work

Compound	Blood Glucose (STZ diabetic rats [1]; Day 0) [mg/dL]	Blood Triglyceride (STZ diabetic rats [1]; Day 0) [mg/d1]	Blood Albumin (STZ diabetic rats [1]; Day 5) [g/dL]	Blood Creatinine (STZ diabetic rats [1]; Day 5) [mg/dL]	Blood Glucose (STZ diabetic rats [1]; Day 5) [mg/dL]	Blood Total protein (STZ diabetic rats [1]; Day 5) [g/dL]	Blood Triglyceride (STZ diabetic rats [1]; Day 5) [mg/d1]	Body weight (STZ diabetic rats [3]; Day 0) [g]	Feed volume taken (STZ diabetic rats [3]; Day 0) [g]	Urine volume output (STZ diabetic rats [3]; Day 0) [mL]	Water volume taken (STZ diabetic rats [3]; Day 0) [g]	Body weight (STZ diabetic rats [3]; Day 5) [g]	Feed volume taken (STZ diabetic rats [3]; Day 5) [g]	Urine volume output (STZ diabetic rats [3]; Day 5) [mL]	Water volume taken (STZ diabetic rats [3]; Day 5) [g]	Urine Creatinine (STZ diabetic rats [4]; Day 0) [mg/12 hr]	Urine Glucose (STZ diabetic rats [4]; Day 0) [g/12 hr]	Urine Total protein (STZ diabetic rats [4]; Day 0) [g/12 hr]	Urine Creatinine (STZ diabetic rats [4]; Day 5) [mg/12 hr]	Urine Glucose (STZ diabetic rats [4]; Day 5) [g/12 hr]	other results
C[C@@H]1O[C@@H]1P(=O)([O-])[O-].[Ca+2] [FOM-Ca, fosfomycin calcium salt]	431 ± 5	178 ± 18	4.1 ± 0.1	0.51 ± 0.01	336 ± 23	5.37 ± 0.07	59 ± 7	–	–	–	–	–	–	–	–	–	–	–	–	–	LD50 (rats; oral administration): ≥ 3500 mg/kg; Effect on serum glucose level / symptoms of diabetes (in words) (STZ diabetic rats [1]; listed as calcium salt, calcium salt): evidently ameliorate an unusually high serum glucose level; Effect on serum glucose level / symptoms of diabetes (in words) (STZ diabetic rats [1]; listed as fosfomycin calcium salt, calcium salt): clearly ameliorate
C[C@@H]1O[C@@H]1P(=O)([O-])[O-].[Na+].[Na+] [FOM-Na, fosfomycin disodium salt]	432 ± 6	211 ± 30	4.0 ± 0.1	0.50 ± 0.00	345 ± 23	5.26 ± 0.06	65 ± 3	235 ± 4	36 ± 1	115 ± 5	153 ± 5	282 ± 3	37 ± 1	106 ± 7	142 ± 16	12.5 ± 0.7	9.2 ± 0.9	4.2 ± 1.1	12.5 ± 0.8	8.9 ± 1.3	Effect on serum glucose level (in words) (STZ diabetic rats [2]; disodium salt): tendency to improve the serum glucose level; also recorded: action of lowering an unusually high serum glucose level; Urine Total protein (STZ diabetic rats [4]; Day 5): 5.6 ± 2.2 g/12 hr; Effect on serum glucose level / symptoms of diabetes (in words) (STZ diabetic rats [1]; disodium salt): evidently ameliorate an unusually high serum glucose level; also recorded: clearly ameliorate
O=S(=O)([O-])[O-].[O]=[V+2] [VOSO4, vanadyl sulfate]	–	–	–	–	–	–	–	226 ± 8	35 ± 2	111 ± 10	140 ± 12	239 ± 9	29 ± 4	82 ± 21	99 ± 24	12.5 ± 1.8	9.1 ± 1.4	7.2 ± 8.2	12.1 ± 2.5	6.8 ± 3.2	Toxicity (in words) (rats; oral administration of 50 mg/kg): no toxicity; Effect on serum glucose level (in words) (STZ diabetic rats [2]): action of lowering an unusually high serum glucose level; Urine Total protein (STZ diabetic rats [4]; Day 5): 3.9 ± 0.8 g/12 hr
C[C@@H]1O[C@@H](O[C@H]2C[C@@H](O)[C@]3(CO)[C@H]4[C@H](O)C[C@]5(C)[C@@H](C6=CC(=O)OC6)CC[C@]5(O)[C@@H]4CC[C@]3(O)C2)[C@H](O)[C@H](O)[C@H]1O [ouabain]	–	–	–	–	–	–	–	–	–	–	–	–	–	–	–	–	–	–	–	–	Inhibition of Na,K-ATPase (in words) (Na,K-ATPase): strong inhibitor
[Na+].[Na+].[Na+].[O]=[V]([O-])([O-])[O-] [sodium orthovanadate]	–	–	–	–	–	–	–	–	–	–	–	–	–	–	–	–	–	–	–	–	Inhibition of Na,K-ATPase (in words) (Na,K-ATPase): strongly inhibit
sodium metavanadate	–	–	–	–	–	–	–	–	–	–	–	–	–	–	–	–	–	–	–	–	Serum glucose level (in words) (STZ diabatic rats): returned to the normal level
